pIC50: −log10 of the molar value.
Tests used:
[1] = system: adjuvant induced arthritis; assay: adjuvant induced arthritis in rats, overall arthritis score; intraarticular right paw, per kg: succinylacetone 325 μg, methyl ester 150 μg, 4-acetyl-5-oxohexanoate 560 μg; type: in vivo, rat
[2] = system: IL-2 (human lymphoid cells); assay: IL-2 production in primary mixed lymphocyte reaction (HT-2 cell assay); type: cell-based; design: IL-2: unit not given here; settings: for IL-2: 1° MLR
Method: Derivatives of succinylacetone were tested for immunosuppressive activity in several different types of assay systems. The first consisted of measuring the amounts of interleukin-2 (IL-2), and interferon-γ (IFN-γ) produced by human lymphoid cells in a mixed lymphocyte reaction. Low levels of these molecules in the reaction mixture indicate that the immune system is being suppressed by the subject succinylacetone derivatives. IL-2 was measured by enumerating the number of viable HT-2 cells found after an 18-24 hours period. HT-2 cells are a mouse IL-2 dependent cell line which die in the absence of IL-2. The assay is described by Gillis et al., J. of Immunol. […] The mixed lymphocyte reaction assay can be carried out by techniques well known to those skilled in the art. L. Hudson and F. C. Huy, Practical Immunology, p. […] Briefly this consists of isolating lymphocytes from human peripheral blood by standard density gradient centrifugation techniques from two separate individuals. Approximately 2×10^5 lymphocytes of each individual are combined to yield a total of 4×10^5 lymphocytes per culture. All procedures are carried out under sterile conditions, and the lymphocytes are isolated and kept in physiologically compatible solutions. To the mixture of lymphocytes is added a desired amount of an appropriate succinylacetone derivative, and after different times an aliquot of the mixture is removed and assayed for IL-2 or IFN-γ, or ^[…] is measured.

[3] = system: peripheral blood lymphocytes; assay: viability of peripheral blood lymphocytes with or without PHA, trypan blue exclusion; type: cell-based, human
Method: (§1) Viability was determined using the trypan blue exclusion method well known in the art. […] The assays were conducted in duplicate wherein peripheral blood lymphocytes were isolated from two separate individuals, and then treated with or without phytohemagglutinin in the presence of various concentrations of the appropriate succinylacetone derivative.

[4] = as above; type: cell-based, human; settings: human, peripheral blood lymphocytes; for viability at 2200 µM: 2.2 mM; for viability at 6700 µM: 6.7 mM; for viability at 20000 µM: 20 mM
Method: as §1

Compound: COC(=O)CCC(C(C)=O)C(C)=O [Methyl 4-Acetyl-5-Oxohexanoate, methyl 4-acetyl-5-oxohexanoate]
- overall arthritis score ([1]; Exp. I (treated from same day), day 14): 3.2 ± 2.2
- overall arthritis score ([1]; Exp. I (treated from same day), day 16): 3.4 ± 2.2
- overall arthritis score ([1]; Exp. I (treated from same day), day 18): 5.0 ± 3.2
- overall arthritis score ([1]; Exp. I (treated from same day), day 20): 7.0 ± 4.0
- overall arthritis score ([1]; Exp. I (treated from same day), day 22): 8.2 ± 4.9
- overall arthritis score ([1]; Exp. I (treated from same day), day 24): 7.2 ± 4.2
- overall arthritis score ([1]; Exp. I (treated from same day), day 26): 7.2 ± 4.2
- overall arthritis score ([1]; Exp. II (treated from day 4), day 14): 1.0 ± 1.4
- overall arthritis score ([1]; Exp. II (treated from day 4), day 16): 2.2 ± 2.5
- overall arthritis score ([1]; Exp. II (treated from day 4), day 18): 1.8 ± 1.8
- overall arthritis score ([1]; Exp. II (treated from day 4), day 20): 2.2 ± 2.0
- overall arthritis score ([1]; Exp. II (treated from day 4), day 22): 5.0 ± 3.5
- overall arthritis score ([1]; Exp. II (treated from day 4), day 24): 3.4 ± 3.6
- overall arthritis score ([1]; Exp. II (treated from day 4), day 26): 4.0 ± 3.7
- overall arthritis score ([1]; Exp. III (treated from day 14), day 14): 2.0 ± 2.0
- overall arthritis score ([1]; Exp. III (treated from day 14), day 16): 2.4 ± 1.5
- overall arthritis score ([1]; Exp. III (treated from day 14), day 18): 3.4 ± 2.6
- overall arthritis score ([1]; Exp. III (treated from day 14), day 20): 5.6 ± 2.7
- overall arthritis score ([1]; Exp. III (treated from day 14), day 22): 7.4 ± 4.8
- overall arthritis score ([1]; Exp. III (treated from day 14), day 24): 7.4 ± 5.3
- overall arthritis score ([1]; Exp. III (treated from day 14), day 26): 7.4 ± 5.3
- effect on arthritis ([1]; comparison of treatment schedules, in words): apparently most active when administered every other day from day 4 to day 24
- IL-2 ([2]; Exp I, 3 μM): 29
- IL-2 ([2]; Exp I, 9 μM): 46
- IL-2 ([2]; Exp I, 27 μM): 30
- IL-2 ([2]; Exp I, 81 μM): 42
- IL-2 ([2]; Exp I, 244 μM): 17
- IL-2 ([2]; Exp I, 733 μM): 17
- IL-2 ([2]; Exp I, 2.2 mM): 9
- IL-2 ([2]; Exp I, 6.7 mM): < 6
- IL-2 ([2]; Exp I, 20 mM): < 6
- IL-2 ([2]; Exp II, 3 μM): 70
- IL-2 ([2]; Exp II, 9 μM): 85
- IL-2 ([2]; Exp II, 27 μM): 52
- IL-2 ([2]; Exp II, 81 μM): 70
- IL-2 ([2]; Exp II, 244 μM): 52
- IL-2 ([2]; Exp II, 733 μM): 70
- IL-2 ([2]; Exp II, 2.2 mM): 35
- IL-2 ([2]; Exp II, 6.7 mM): < 12
- IL-2 ([2]; Exp II, 20 mM): < 12
- pIC50 ([2]; Homo sapiens, HT2, primary MLR, read-out: concentration causing 50% reduction in IL-2 production): ~2.66
- toxicity ([3]; as high as 20 mM): no toxicity
- Cells/ml ([3]; first individual, (+) PHA, 3 μM): 0.45 X 10^6 Cells/ml
- Cells/ml ([3]; first individual, (+) PHA, 9 μM): 0.47 X 10^6 Cells/ml
- Cells/ml ([3]; first individual, (+) PHA, 27 μM): 0.46 X 10^6 Cells/ml
- Cells/ml ([3]; first individual, (+) PHA, 81 μM): 0.38 X 10^6 Cells/ml
- Cells/ml ([3]; first individual, (+) PHA, 244 μM): 0.44 X 10^6 Cells/ml
- Cells/ml ([3]; first individual, (+) PHA, 733 μM): 0.38 X 10^6 Cells/ml
- Cells/ml ([3]; first individual, (+) PHA, 2.2 mM): 0.49 X 10^6 Cells/ml
- Cells/ml ([3]; first individual, (+) PHA, 6.7 mM): 0.46 X 10^6 Cells/ml
- Cells/ml ([3]; first individual, (+) PHA, 20 mM): 0.49 X 10^6 Cells/ml
- Cells/ml ([3]; first individual, (-) PHA, 3 μM): 0.39 X 10^6 Cells/ml
- Cells/ml ([3]; first individual, (-) PHA, 9 μM): 0.55 X 10^6 Cells/ml
- Cells/ml ([3]; first individual, (-) PHA, 27 μM): 0.44 X 10^6 Cells/ml
- Cells/ml ([3]; first individual, (-) PHA, 81 μM): 0.42 X 10^6 Cells/ml
- Cells/ml ([3]; first individual, (-) PHA, 244 μM): 0.40 X 10^6 Cells/ml
- Cells/ml ([3]; first individual, (-) PHA, 733 μM): 0.37 X 10^6 Cells/ml
- Cells/ml ([3]; first individual, (-) PHA, 2.2 mM): 0.57 X 10^6 Cells/ml
- Cells/ml ([3]; first individual, (-) PHA, 6.7 mM): 0.57 X 10^6 Cells/ml
- Cells/ml ([3]; first individual, (-) PHA, 20 mM): 0.5 X 10^6 Cells/ml
- Cells/ml ([3]; second individual, (+) PHA, 3 μM): 0.40 X 10^6 Cells/ml
- Cells/ml ([3]; second individual, (+) PHA, 9 μM): 0.50 X 10^6 Cells/ml
- Cells/ml ([3]; second individual, (+) PHA, 27 μM): 0.50 X 10^6 Cells/ml
- Cells/ml ([3]; second individual, (+) PHA, 81 μM): 0.40 X 10^6 Cells/ml
- Cells/ml ([3]; second individual, (+) PHA, 244 μM): 0.54 X 10^6 Cells/ml
- Cells/ml ([3]; second individual, (+) PHA, 733 μM): 0.40 X 10^6 Cells/ml
- Cells/ml ([3]; second individual, (+) PHA, 2.2 mM): 0.50 X 10^6 Cells/ml
- Cells/ml ([3]; second individual, (+) PHA, 6.7 mM): 0.50 X 10^6 Cells/ml
- Cells/ml ([3]; second individual, (+) PHA, 20 mM): 0.55 X 10^6 Cells/ml
- Cells/ml ([3]; second individual, (-) PHA, 3 μM): 0.44 X 10^6 Cells/ml
- Cells/ml ([3]; second individual, (-) PHA, 9 μM): 0.52 X 10^6 Cells/ml
- Cells/ml ([3]; second individual, (-) PHA, 27 μM): 0.50 X 10^6 Cells/ml
- Cells/ml ([3]; second individual, (-) PHA, 81 μM): 0.46 X 10^6 Cells/ml
- Cells/ml ([3]; second individual, (-) PHA, 244 μM): 0.5 X 10^6 Cells/ml
- Cells/ml ([3]; second individual, (-) PHA, 733 μM): 0.41 X 10^6 Cells/ml
- Cells/ml ([3]; second individual, (-) PHA, 2.2 mM): 0.54 X 10^6 Cells/ml
- Cells/ml ([3]; second individual, (-) PHA, 6.7 mM): 0.6 X 10^6 Cells/ml
- Cells/ml ([3]; second individual, (-) PHA, 20 mM): 0.5 X 10^6 Cells/ml
- viability at 3 µM ([4]; first individual, (+) PHA): 100%
- viability at 9 µM ([4]; first individual, (+) PHA): 100%
- viability at 27 µM ([4]; first individual, (+) PHA): 100%
- viability at 81 µM ([4]; first individual, (+) PHA): 100%
- viability at 244 µM ([4]; first individual, (+) PHA): 100%
- viability at 733 µM ([4]; first individual, (+) PHA): 100%
- viability at 2200 µM ([4]; first individual, (+) PHA): 100%
- viability at 6700 µM ([4]; first individual, (+) PHA): 100%
- viability at 20000 µM ([4]; first individual, (+) PHA): 100%
- viability at 3 µM ([4]; first individual, (-) PHA): 100%
- viability at 9 µM ([4]; first individual, (-) PHA): 100%
- viability at 27 µM ([4]; first individual, (-) PHA): 100%
- viability at 81 µM ([4]; first individual, (-) PHA): 100%
- viability at 244 µM ([4]; first individual, (-) PHA): 100%
- viability at 733 µM ([4]; first individual, (-) PHA): 100%
- viability at 2200 µM ([4]; first individual, (-) PHA): 100%
- viability at 6700 µM ([4]; first individual, (-) PHA): 100%
- viability at 20000 µM ([4]; first individual, (-) PHA): 100%
- viability at 3 µM ([4]; second individual, (+) PHA): 100%
- viability at 9 µM ([4]; second individual, (+) PHA): 100%
- viability at 27 µM ([4]; second individual, (+) PHA): 100%
- viability at 81 µM ([4]; second individual, (+) PHA): 100%
- viability at 244 µM ([4]; second individual, (+) PHA): 100%
- viability at 733 µM ([4]; second individual, (+) PHA): 100%
- viability at 2200 µM ([4]; second individual, (+) PHA): 100%
- viability at 6700 µM ([4]; second individual, (+) PHA): 100%
- viability at 20000 µM ([4]; second individual, (+) PHA): 100%
- viability at 3 µM ([4]; second individual, (-) PHA): 100%
- viability at 9 µM ([4]; second individual, (-) PHA): 100%
- viability at 27 µM ([4]; second individual, (-) PHA): 100%
- viability at 81 µM ([4]; second individual, (-) PHA): 100%
- viability at 244 µM ([4]; second individual, (-) PHA): 100%
- viability at 733 µM ([4]; second individual, (-) PHA): 100%
- viability at 2200 µM ([4]; second individual, (-) PHA): 100%
- viability at 6700 µM ([4]; second individual, (-) PHA): 100%
- viability at 20000 µM ([4]; second individual, (-) PHA): 100%

From patent US5216005A, “Immunosuppressive analogues and derivatives of succinylacetone” (priority 1990, dated 1993)
